Laboratory results from publication PMC7496931, “Activation of Sirtuin 2 Inhibitors Employing Photoswitchable Geometry and Aqueous Solubility” (Chemmedchem, 2020).
Like-named read-outs stand apart in the source and are kept apart here. Each block holds one molecule with its values, some of them ahead of it.

Key:
Sirt1 = molecular target: T1, Sirt1 (Homo sapiens, UniProt Q96EB6); assay: Fluorescence-based ZMAL deacetylase activity assay, Sirt1; assay type: biochemical; conditions: non-irradiated
T1 construct: Expression and purification of Sirt1_133−747, Sirt2_56−356, and Sirt3_118−395 was carried out as described previously; made in house
T1 sequence (Q96EB6 133-747): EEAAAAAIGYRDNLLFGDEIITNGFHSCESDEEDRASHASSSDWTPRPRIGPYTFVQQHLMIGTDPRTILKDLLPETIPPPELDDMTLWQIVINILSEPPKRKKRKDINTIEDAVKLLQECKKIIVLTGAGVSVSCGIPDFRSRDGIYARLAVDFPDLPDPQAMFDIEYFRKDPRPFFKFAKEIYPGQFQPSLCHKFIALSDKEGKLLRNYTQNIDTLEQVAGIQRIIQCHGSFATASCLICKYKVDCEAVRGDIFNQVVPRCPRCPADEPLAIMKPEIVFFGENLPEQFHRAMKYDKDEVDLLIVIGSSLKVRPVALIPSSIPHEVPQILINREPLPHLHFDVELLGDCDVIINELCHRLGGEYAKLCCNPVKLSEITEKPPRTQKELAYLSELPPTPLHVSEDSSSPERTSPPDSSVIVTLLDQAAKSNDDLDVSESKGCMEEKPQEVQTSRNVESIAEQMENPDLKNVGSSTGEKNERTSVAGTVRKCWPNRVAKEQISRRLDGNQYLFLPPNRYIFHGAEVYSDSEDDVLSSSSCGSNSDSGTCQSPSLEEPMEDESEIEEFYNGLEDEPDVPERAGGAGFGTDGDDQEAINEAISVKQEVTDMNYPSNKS
Protocol: (§1) The effect of the compounds on deacetylase activity of three human sirtuin isotypes (Sirt1–3) was investigated by a homogeneous fluorescence‐based assay, using (Z)‐Lys(acetyl)‐AMC (ZMAL) as substrate. In order to determine the impact of photoisomerization, the respective compounds were irradiated (365 nm, 5 min) in DMSO prior to incubation in the enzyme assay mixture. The results of the irradiated probes were finally compared to non‐irradiated measurements.
(§2) Cloning, expression and purification of recombinant proteins: Expression and purification of Sirt1_133−747, Sirt2_56−356, and Sirt3_118−395 was carried out as described previously.27 Identity and purity were verified by SDS‐PAGE.
(§3) Fluorescence‐based activity assay: The inhibitory effect of compounds on Sirt1–3 was detected via a previously reported fluorescence‐based assay.29 The synthetic substrate (Z)‐Lys(acetyl)‐AMC (ZMAL) is deacetylated by sirtuins, followed by tryptic digestion and thereby release of 7‐aminomethylcoumarin, leading to a fluorescent readout. Inhibition was determined by comparing percentage substrate conversion to a DMSO control after subtraction of the blank fluorescence signal. All compounds were tested at 100 or 50 μM and 10 μM respectively. […] IC50 values were calculated with OriginPro 9.0 G using a non‐linear regression to fit the dose response curve (Figure S6). An enzyme‐free blank control and a 100 % conversion control using AMC instead of ZMAL were measured as well. Inhibition measurements were performed in biological duplicates for all compounds. […]
(§4) Fluorescence-Based Activity Assay (ZMAL-Assay)
(§5) The influence of the synthesized compounds on the deacetylase activity of the class I sirtuins Sirt1–3 was determined in a homogenous fluorescence-based enzyme assay, using the artificial substrate Z-(Ac)Lys-AMC (ZMAL). ZMAL is processed by sirtuins yielding Z-Lys-AMC.
(§6) The latter is subsequently cleaved by tryptic digestion, releasing 7-amino-4-methylcoumarin (AMC), excitation of which leads to a fluorescent read out (λex=390 nm; λem=460 nm). Instead, […]
(§7) contribute to the fluorescence signal. Therefore, the fluorescence intensity is proportional to the activity of the respective sirtuin.
(§8) After subtraction of the blank fluorescence signal (without enzyme) from the signal of the respective probe, the residual signal intensity is related to a 100 % conversion control (AMC), […]
(§9) yielding the percentage substrate conversion. Comparison of the determined substrate conversion with a no-inhibition DMSO control yields the percentage inhibition at the respective […]
(§10) For determination of IC50, inhibitory activity of the respective compound was determined at 8 to 10 distinct concentrations. The measured values were analysed by a non-linear fit to the dose-response curve using a four parameter logistic model (Figure S6):
(§11) Figure S6: Non-linear regression of the dose-response curves of compounds 15c and 15f at the thermal equilibrium (∆, black) and after 5 minutes of 365 nm irradiation (red). […]
A maximal polarization control using just DMSO and a minimal polarization control using 1 µL of the 400 µM solution of 22 instead of inhibitor were performed as well as a blank control containing 1 µL of DMSO in 19 µL assay buffer. The mixture was incubated 10 min at 37 °C […]
(§12) (1 picture or pasted object on this page, not shown here)

Sirt2 [1] = molecular target: T2, Sirt2 (Homo sapiens, UniProt Q8IXJ6); assay: Fluorescence-based ZMAL deacetylase activity assay, Sirt2; assay type: biochemical; conditions: non-irradiated; for IC50: read-out: Sirt2 inhibition, IC50; for inhibition at 100 µM / inhibition at 10 µM: read-out: Sirt2 inhibition, percent inhibition relative to controls
T2 construct: Expression and purification of Sirt1_133−747, Sirt2_56−356, and Sirt3_118−395 was carried out as described previously; made in house
T2 sequence (Q8IXJ6 56-356): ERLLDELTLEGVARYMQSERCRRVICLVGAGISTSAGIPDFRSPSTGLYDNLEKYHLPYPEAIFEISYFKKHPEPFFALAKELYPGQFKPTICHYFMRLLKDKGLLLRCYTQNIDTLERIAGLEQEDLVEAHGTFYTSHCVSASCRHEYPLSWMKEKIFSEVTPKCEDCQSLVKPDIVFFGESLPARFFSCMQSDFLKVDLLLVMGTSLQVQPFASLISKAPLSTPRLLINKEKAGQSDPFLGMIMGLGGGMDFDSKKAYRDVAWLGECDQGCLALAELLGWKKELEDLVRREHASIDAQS
Protocol: as §1, §2, §3, §4, §5, §6, §7, §8, §9, §10, §11
(§13) A maximal polarization control using just DMSO and a minimal polarization control using 1 µL of the 400 µM solution of 22 instead of inhibitor were performed as well as a blank control containing 1 µL of DMSO in 19 µL assay buffer. The mixture was incubated 10 min at 37 °C

Sirt3 = molecular target: T3, Sirt3 (Homo sapiens, UniProt Q9NTG7); assay: Fluorescence-based ZMAL deacetylase activity assay, Sirt3; assay type: biochemical; conditions: non-irradiated; for IC50: read-out: Sirt3 inhibition, IC50
T3 construct: Expression and purification of Sirt1_133−747, Sirt2_56−356, and Sirt3_118−395 was carried out as described previously; made in house
T3 sequence (Q9NTG7 118-395): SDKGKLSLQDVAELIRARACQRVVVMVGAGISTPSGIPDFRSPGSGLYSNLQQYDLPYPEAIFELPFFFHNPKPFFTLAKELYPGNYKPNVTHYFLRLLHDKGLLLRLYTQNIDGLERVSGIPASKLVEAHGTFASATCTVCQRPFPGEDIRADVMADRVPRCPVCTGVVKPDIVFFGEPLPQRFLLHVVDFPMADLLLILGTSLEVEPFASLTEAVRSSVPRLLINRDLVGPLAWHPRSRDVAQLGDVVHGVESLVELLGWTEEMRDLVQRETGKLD
Protocol: as §1, §2, §3, §4, §5, §6, §7, §8, §9, §10, §11, §13

Sirt2 [2] = molecular target: T2, Sirt2; set-up: method as in PMID 29685963; conditions: lead 3, previously published; read-out: Sirt2 inhibition, IC50; cited from earlier work
[3] = UV/Vis spectra and half-life of thermal Z→E isomerization; assay type: physicochemical
Protocol: Photochemistry: All photoisomerization experiments were conducted under ruby light of 630 nm and total exclusion of daylight. Illumination was executed using a Bio‐Link 254 Crosslinker from Vilber‐Lourmat equipped with six Vilber‐Lourmat T8‐L lamps (8 W, 365 nm). Visible light radiation of 630 nm (ruby) and 452 nm (blue) was derived from a Paulmann FlexLED 3D strip. All compounds were irradiated in solution using spectrophotometric grade solvents. Photoisomerization and UV/Vis‐spectra measurement was conducted in quartz glass cuvettes (114‐QS, Hellma Analytics) at room temperature.
UV/Vis Spectra and Half-Life of Thermal Isomerization
The half-life of the thermal Z→E isomerization after 5 minutes of 365 nm irradiation was determined by UV/Vis-spectroscopy. Therefore, solutions of the respective compounds (50 µM) in 5%, 50% or 90% DMSO in enzyme assay buffer (v/v) were prepared. An initial spectrum of the thermal equilibrium was recorded. After 5 minutes of irradiation with 365 nm the increase of absorbance at the thermal equilibrium maximum (λ∆max) was recorded as exemplified by compound 15c (Figure S3). Absorbance at λ = λ ∆max was plotted as a function of time. Non-linear regression yielded the half-life of the thermal Z→E isomerization (Table S1). For extrapolation of the reaction kinetics, the plateau value was set to the initial absorbance at λ=λ∆max. The following equation was used for non-linear regression:
y = (y0 − Plateau)e−kx + Plateau
Figure S3: Left: UV-Vis spectrum of 15c (50 µM) in assay buffer (5% DMSO, v/v) at the thermal equilibrium (∆) and the photostationary state (PSS) after UV irradiation (365 nm). Right:
Absorbance of 15c (50 µm) in assay buffer (5% DMSO, v/v) at λ∆max = 328 nm after 5 minutes of UV (365 nm) irradiation.
as §12

[4] = read-out: Sirt1 inhibition, percent inhibition relative to controls
[5] = read-out: Sirt3 inhibition, percent inhibition relative to controls

SMILES: COC(=O)c1cncc(/N=N/c2cc(C)c(N)c(C)c2)c1 [6 f]
Sirt1 inhibition (class) (Sirt1): n.i. (n.i.: no inhibition detected (<30 % @ 100 μM))
Sirt2 inhibition (class) (Sirt2 [1]): n.i. (n.i.: no inhibition detected (<30 % @ 100 μM))
Sirt3 inhibition (class) (Sirt3): n.i. (n.i.: no inhibition detected (<30 % @ 100 μM))
melting point: 190.6 °C

SMILES: Cc1cc(O)cc(C)c1/C=C/c1cncc(C(N)=O)c1 [compound 3]
IC50 (Sirt2 [2]): 25 µM

SMILES: CCNC(=O)c1cncc(/N=N/c2cc(C)c(N)c(C)c2)c1 [12 b]
Sirt1 inhibition (class) (Sirt1): n.i. (n.i.: no inhibition detected (<30 % @ 100 μM))
inhibition at 10 µM (Sirt2 [1]): 16%
inhibition at 10 µM (Sirt3; [5]): 11%

SMILES: CCOC(=O)c1cncc(/N=N/c2cc(C)c(N)c(C)c2)c1 [compound 11]
Sirt1 inhibition (class) (Sirt1): n.i. (n.i.: no inhibition detected (<30 % @ 100 μM))
Sirt2 inhibition (class) (Sirt2 [1]): n.i. (n.i.: no inhibition detected (<30 % @ 100 μM))
Sirt3 inhibition (class) (Sirt3): n.i. (n.i.: no inhibition detected (<30 % @ 100 μM))

SMILES: Cc1cc(/N=N/c2cncc(C(N)=O)c2)cc(C)c1O [7 b]
inhibition at 50 µM (Sirt1; [4]): 19%
IC50 (Sirt2 [1]): 10.8 ± 0.6 µM
IC50 (Sirt3): 7.9 ± 0.5 µM
thermal Z→E isomerization (in words) ([3]; in acetonitrile): rapid thermal isomerization
melting point: 166.4 °C

The next lines start with results.

inhibition at 50 µM (Sirt1; [4]): 14%
IC50 (Sirt2 [1]): 7.9 ± 0.6 µM
IC50 (Sirt3): 9.5 ± 0.9 µM
SMILES: Cc1cc(O)cc(C)c1/N=N/c1cncc(C(N)=O)c1 [7 a]

inhibition at 100 µM (Sirt2 [1]): 43%
inhibition at 100 µM (Sirt3; [5]): 43%
SMILES: Cc1cc(/N=N/c2cncc(C(=O)NCCO)c2)cc(C)c1N [12 d]
Sirt1 inhibition (class) (Sirt1): n.i. (n.i.: no inhibition detected (<30 % @ 100 μM))

inhibition at 100 µM (Sirt1; @ 100 μM, read-out: Sirt1 inhibition, percent inhibition relative to controls): 33%
inhibition at 100 µM (Sirt2 [1]): 45%
inhibition at 100 µM (Sirt3; [5]): 45%
SMILES: CNC(=O)c1cncc(/N=N/c2cc(C)c(N)c(C)c2)c1 [12 a]

inhibition at 10 µM (Sirt2 [1]): 17%
inhibition at 10 µM (Sirt3; [5]): 11%
SMILES: CCCCNC(=O)c1cncc(/N=N/c2cc(C)c(N)c(C)c2)c1 [12 c]
Sirt1 inhibition (class) (Sirt1): n.i. (n.i.: no inhibition detected (<30 % @ 100 μM))

inhibition at 10 µM (Sirt2 [1]): 49%
IC50 (Sirt2 [1]): ~10 µM
inhibition at 10 µM (Sirt3; [5]): 33%
thermal Z→E isomerization (in words) ([3]; aqueous solution): rapid thermal Z→E isomerization
melting point: 202.1 °C
SMILES: NC(=O)c1cncc(OCc2cccc(/N=N/c3ccc(N4CCOCC4)cc3)c2)c1 [20 d]
Sirt1 inhibition (class) (Sirt1): n.i. (n.i.: no inhibition detected (<30 % @ 100 μM))

inhibition at 10 µM (Sirt1; [4]): 17%
inhibition at 10 µM (Sirt2 [1]): 54%
inhibition at 10 µM (Sirt3; [5]): 66%
SMILES: CN(C)c1ccc(/N=N/c2cncc(C(N)=O)c2)cc1 [7 e]

inhibition at 10 µM (Sirt1; [4]): 10%
inhibition at 10 µM (Sirt2 [1]): 62%
inhibition at 50 µM (Sirt3; @ 50 μM, read-out: Sirt3 inhibition, percent inhibition relative to controls): 39%
melting point: 250.2 °C
SMILES: COc1cc(/N=N/c2cncc(C(N)=O)c2)cc(OC)c1O [7 d]
